Laboratory results taken from US20230399295A1, “COMPOSITIONS FOR INCREASING TISSUE REGENERATION AND DELAYING OR REDUCING GRANULOMA FORMATION” (THE BRIGHAM AND WOMEN'S HOSPITAL, INC., priority 2020, published 2023).

Tests used:
[1] = Half-life in the body (statement only, no method); conditions: in vivo
human PBMCs = assay: Granuloma assay: human PBMCs with E. coli total protein extract-coupled sepharose beads; format: cell-based; conditions: single treatment 10 nM at time 0; scoring 0-4 at day 3; versus vehicle
Description: FIG. 3: Resolvin (Rv) Peptido-Lipids Delay Human Granuloma Formation. Freshly isolated human PBMCs were incubated with E. coli total protein extract covalently coupled CNBr-activated sepharose beads and received a single treatment of either vehicle (0.1% methanol or ethanol), 10 nM RvD3, 10 nM RCTR1, or 10 nM 4,5-RCTR1 at time 0 and incubated for 6 days. A) Scoring of day 3 granuloma severity post-single treatment with either vehicle (0.1% methanol or ethanol), 10 nM RvD3, 10 nM RCTR1, or 10 nM 4,5-RCTR1. n=3 individual human donors. Mean±SEM. Unpaired two-tailed Student's t-test. **p<0.01, ***p<0.001 versus vehicle. B) Representative images of granuloma formation on day 3 after a single treatment with either vehicle (0.1% methanol or ethanol), 10 nM RvD3, 10 nM RCTR1, or 10 nM 4,5-RCTR1. […]
E. coli (Serotype: 06:K2:H1) was grown overnight in Luria broth in an orbital shaker (400 rpm) at 37° C. […] Supernatant was taken before and after the coupling reaction and measured for protein content by BCA assay (Thermo Fisher Scientific) to determine the efficiency of the reaction. […]
Freshly isolated PBMCs (1×10^6 cells/well) were treated with either vehicle (0.1% ethanol), RvD3 (10 nM), RCTR1 (10 nM) or 4,5-RCTR1 (10 nM) and E. coli total protein lysate-coated CNBr-activated sepharose beads simultaneously in 1 mL complete RPMI-1640. […] Granulomas were scored based on formation progression. […]

[2] = system: Planaria (Dugesia japonica); assay: Planaria regeneration after surgical injury; format: in vivo
Description: Planaria were surgically injured post-ocular and received either vehicle (0.1% ethanol) or 10 nM 4,5-RCTR1 one-hour post-injury and imaged daily for six days. A) Representative images of Planaria regeneration from Day 1-6 post-surgical injury. B) Tissue regeneration indices (μm) from Day 1-6 post-surgically injured Planaria. C) Tissue regeneration rate (TRR, μm/day) is the rate (area of tissue regeneration/days at TRI50) to achieve 50% tissue regeneration after surgical injury. n=6 Planaria per group per day. Data represented as mean±SEM. Unpaired two-tailed Student's t-test. *p<0.05, **p<0.01, ***p<0.001, and ****p<0.0001 versus vehicle. Planaria (Dugesia japonica) were kept in water (Poland Spring, Poland, ME) at 20° c. All animals were starved for 7 days prior to surgery. Planaria were surgically injured post-ocularly and received either vehicle (0.1% ethanol) or 10 nM 4,5-RCTR1 in water one-hour post-injury. Tissue regeneration was monitored daily for six days via a Zeiss Axiovert 40 CFL Microscope (Jena, Germany) equipped with a Lumenera Infinity 3 Camera (Ottawa, Canada) running Image-Pro Plus (Version 7.0.0.591, Media Cybernetics, Rockville, MD, USA). Regenerated tissue was quantified using ImageJ software (NIH). The tissue regeneration index (TRI) normalizes the total area of regenerated tissue by the post-ocular width. The TRI50 is the amount of time it takes to reach 50% of the maximum […]. […] FIGS. 2A, 2B and 2C: Planaria were surgically injured post-ocular and received either vehicle (0.1% ethanol) or 4,5-RCTR1 one-hour post-injury and imaged daily for six days. 2A) Representative images of Planaria regeneration from Day 1-6 post-surgical injury. 2B) Tissue regeneration indices (μm) from Day 1-6 post-surgically injured Planaria. 2C) Tissue regeneration rate (TRR, μm/day) is the rate (area of tissue regeneration/days at TRI50) to achieve 50% tissue regeneration after surgical injury. n=6 Planaria per group per day. Data represented as mean±SEM. Unpaired two-tailed Student's t-test. *p<0.05, **p<0.01, ***p<0.001, and ****p<0.0001 versus vehicle.

CC/C=C\C[C@H](O)/C=C/C=C\C\C=C/C=C/C=C/[C@@H](SC[C@H](NC(=O)CC[C@H](N)C(=O)O)C(=O)NCC(=O)O)[C@@H](O)CCC(=O)O [4,5-RCTR1, 5-glutathionyl, 4,17-hydroxy-docosahexaenoic acid]
half-life in the body [1]: relatively sort half-life
granuloma formation (human PBMCs): significantly delays granuloma formation
amount of tissue regenerated ([2]; in vivo): increases the amount of tissue regenerated
time required for tissue regeneration ([2]; in vivo): accelerates the time required for tissue regeneration
regenerative action / planaria regeneration ([2]; surgically injured post-ocular, 10 nM one-hour post-injury, imaged daily for six days, versus vehicle): regenerative action
